# In patent US4892871A, “Azido-substituted octopamine agonists and the use thereof to control invertebrate pests” (The General Hospital Corporation, priority 1988, dated 1990):
# Read-outs that look alike come from different tables or passages of the source.
# Legend:
# [1] = test system: Light Organ Adenylate Cyclase; experiment: Antagonist inhibition of agonist-stimulated light organ adenylate cyclase; assay type: biochemical, firefly; details: for inhibition of compound IV stimulation of adenylate cyclase (in words): stimulation by compound IV; for Ki: read-out: Calculated Ki
# adenylate cyclase = details: cited from earlier work
# octopamine receptor [2] = experiment: In vitro octopamine agonist activity in the cockroach; assay type: biochemical
# Excerpt: (§1) However, use of formamidines as pest controlling agents gives rise to certain problems, including the fact that the aniline breakdown products are carcinogenic. Moreover, a further problem is that the range of activity of these compounds is limited to a relatively few insect species. Matsumura, F., et al.. Environ. Health Perspect. 14: 71-82 (1976). […] Consistent with this in vitro activity, the formamidines are toxic in Manduca but not in the cockroach.
# octopamine receptor [3] = experiment: In vitro octopamine agonist activity in Manduca; assay type: biochemical
# Excerpt: as §1
# [4] = test system: octopamine receptor protein(s); experiment: SDS-polyacrylamide gel autoradiogram of light organ membrane proteins photolabeled with VIII; assay type: binding, firefly
# [5] = test system: intact firefly light organ; experiment: Light emission after injection into isolated firefly tails; assay type: in vivo
# Method: In the second verification procedure, a bioassay was conducted which measured the effect of tritiated VIII on eliciting light emission when injected into isolated firefly tails.
# octopamine receptors [6] = experiment: Irreversible activation of adenylate cyclase after photolysis of firefly light organ membranes; assay type: biochemical; details: photolyzed, washed
# Excerpt: When exposed to ultraviolet light in these wavelengths, the N3 azido group on the para-position is photolyzed to yield free N2 and a […] covalently with a number of protein sites, including areas with double bonds, amino groups and carboxylic acids. If compound IV is occupying an octopamine receptor at the time of photolysis, then the ligand will bind to a site on or near the receptor protein. […] To determine this, a series of photolysis experiments were performed in which firefly light organ membranes were preincubated with or without compound IV and then photolyzed. Next, the membranes were extensively washed to remove all free ligand and any ligand that was not covalently bound. Following this, adenylate cyclase activity was assayed. […] Presumably, the excess octopamine displaced compound IV so that, when the membranes were later photolyzed, octopamine (and not compound IV) was occupying the receptor. Subsequently, during washing, the octopamine was removed so that the receptor returned to its unstimulated state.
# Manduca larvae = experiment: Antifeeding activity, Manduca larvae on sprayed tomato leaves; assay type: in vivo; details: percentage of leaf area remaining after 72 hours, dim light
# octopamine receptors [7] = experiment: Autoradiography of intact isolated firefly light organs labeled with VIII
# Method: Because compound VIII binds irreversibly, it should have potential as an anatomic probe to […] localize octopamine receptors at the light microscopic level. To determine if this is feasible, some preliminary studies were conducted using intact isolated firefly light organs. The lanterns were first preincubated with VIII in dim light and then exposed either to no light or to intense UV. Following this step, the lanterns were extensively washed, then slide mounted, dehydrated, and exposed to tritium-sensitive X-ray film. […] In the absence of UV light, there was no labeling. Localization of octopamine receptors, particularly in the nervous system, should aid in an understanding of how octopamine exerts its behavioral effects in insects.
# [8] = test system: octopamine-sensitive adenylate cyclase; experiment: Activation of adenylate cyclase in firefly light organ membrane (broken cell) preparations; assay type: biochemical, Photinus pyralis; details: for Ka (concentration necessary for half-maximal activation of cyclase activity): firefly light organ membranes, reversible conditions
# Method: The question of whether a given azido-substituted compound within the scope of the invention is an octopamine agonist can be readily answered by measuring adenylate cyclase activity of the octopamine-sensitive adenylate cyclase present in broken cell preparations of the firefly light organ. […] Specimens of Photinus pyralis are prepared by opening their tail sections, cleaning them, removing the light organs, and homogenizing the cyclase-containing fraction. Adenylate cyclase activity is measured in appropriate buffer-containing ATP, cofactors, and the compound to be tested. Normally, the solution mixture contains a phosphodiesterase inhibitor such as theophylline, and the assay is designed to provide linear measurements with respect to time and enzyme concentration. If necessary, the compounds to be tested are initially solubilized and appropriate solvent controls are run in parallel. The enzyme reaction is initiated by addition of ATP, stopped by heating, and centrifuged. Cyclic AMP can be measured by any test which indicates the presence thereof, preferably by the protein binding assay of Brown et al. (Advances in Cyclic Nucleotide Research 2:25-40 (1972)). The determination of the constant Ka, which is the concentration of the azido-substituted agonist necessary for half-maximal activation of cyclase activity, is carried out by measuring cyclase activity in the preparation, and plotting the activity (above control activity) versus the semilogarithm of the particular agonist concentration. This is done for a series of increasing concentrations until maximal activity (Vmax) is reached. Ka^(Azido) is then calculated from the graph as the agonist concentration required for one-half of Vmax. Ka^(Azido) is compared with the constant (Ka^oct) determined in an analogous way using ±p-octopamine as the agonist. The ratio Ka^oct /ka^(Azido) is then an indication of whether a particular azido-substituted agonist (Azido) is more (ratio greater than 1) or less (ratio smaller than 1) active than (±)-p-octopamine (oct). […]
# octopamine receptors [9] = experiment: Irreversible (UV) binding of compound VIII to firefly light organ membranes and displacement; details: for displacement of irreversible VIII binding (in words): other experiments, nonoctopaminergic compounds
# Method: In these experiments, membranes were preincubated with the probe for under various conditions and then the mixture was photolyzed in quartz microcuvettes using a UV-C germicidal lamp. […] To determine whether the binding was specific, various displacing agents were added during the preincubation with tritiated IV (VIII), and the mixture then photolyzed.
# octopamine receptor [10] = experiment: Reversible binding of compound VIII to light organ membranes (filtration); design: species or system firefly
# Excerpt: The low affinity of octopamine for its receptor (Ka =30 micromolar) results in a half-time of dissociation of considerably less than 0.1 second. This precludes the use of labeled octopamine as a receptor ligand since the time required for the separation of free from bound ligand during a filtration assay is several seconds. […] In other words, following washing, enough ligand will still be on the receptor to allow estimation of the receptor's binding constant for compound IV. (Because there will still be significant loss of label during filtration, one cannot use this type of assay to estimate total receptor number).
structure (smiles),measurement,setting,value
"CN1CCC(=C2c3ccccc3C=Cc3ccccc32)CC1 [Cyproheptadine, cyproheptadine]",inhibition of compound IV stimulation of adenylate cyclase (in words),[1],inhibited
"CNC=Nc1ccc(Cl)cc1C [DCDM, N-demethylchlordimeform]",agonist character in adenylate cyclase stimulation,adenylate cyclase,partial agonist
same,potency relative to octopamine in adenylate cyclase stimulation,adenylate cyclase,about six
"Cc1cc(Cl)ccc1N=CN [DDCDM, didemethylchlordimeform]",agonist character,octopamine receptor [2],very weak and partial agonist
same,agonist character,octopamine receptor [3],full agonist
same,potency relative to octopamine,octopamine receptor [3],20 fold
"CN1CCN2c3ccccc3Cc3ccccc3C2C1 (centres unmarked) [Mianserin, mianserin]","effect on VIII labeling of the protein peak at MW 74,000",[4]; excess antagonist present during photolysis,completely blocked
same,inhibition of compound IV stimulation of adenylate cyclase (in words),[1],inhibited
"Cc1ccc(N(CC2=NCCN2)c2cccc(O)c2)cc1 [Phentolamine, phentolamine]",Ki,[1]; inhibiting stimulation by DCDM (a formamidine),18 µM
same,Ki,[1]; inhibiting stimulation by compound IV,20 µM
same,Ki,[1]; inhibiting stimulation by octopamine (OCT),46 µM
same,inhibition of compound IV stimulation of adenylate cyclase (in words),[1],inhibited
"CC(C)NCC(O)COc1cccc2ccccc12 (centres unmarked) [Propranolol, propranolol]",inhibition of compound IV stimulation of adenylate cyclase (in words),[1],less potent
"CCc1cc(N=[N+]=[N-])cc(CC)c1N=C1NCCN1 [compound IV, (4-azido-2,6-diethylphenyl)imino-2-imidazoline]",potency relative to octopamine in stimulating light emission,[5]; injected into isolated firefly tails,about 15 fold
same,increase in adenylate cyclase activity after prior photolysis and washing,octopamine receptors [6]; membranes preincubated with compound,3 fold
same,potency relative to octopamine in inhibiting feeding,Manduca larvae,about 10 fold
"[3H]c1c(CC)c(N=C2NCCN2)c(CC)c([3H])c1N=[N+]=[N-] [compound VIII, 2-(4-azido-2,6-diethyl-3,5-ditritiophenyl)imino-2-imidazoline]",proteins labeled on gel,[4]; absence of UV radiation (lane C),no proteins were labeled
same,proteins labeled on gel,[4]; photolyzed with UV (lane A),Four major labeled peaks
same,labeling of the lantern,octopamine receptors [7]; absence of UV light,no labeling
same,labeling of the lantern,octopamine receptors [7]; exposed to intense UV,marked labeling
same,light response compared with genuine unlabeled compound,[5]; injection of 0.5 nmoles into isolated firefly tails,identical
same,Ka (concentration necessary for half-maximal activation of cyclase activity),[8],about 0.5 micromolar
same,adenylate cyclase activity profile compared with unlabeled IV,[8]; light organ membranes,virtually identical
same,increase in amount of label permanently bound on exposure to UV light,octopamine receptors [9]; photolyzed vs no UV,14 fold
same,concentration at which specific binding saturates,octopamine receptor [10]; specific binding = absence minus presence of 1000-fold excess mianserin,about 2 micromolar
same,Kd,"octopamine receptor [10]; specific binding, light organ membranes, read-out: concentration at which 50% binding occurs",~0.8 µM
NCCc1ccc(O)c(O)c1 [dopamine],displacement of irreversible VIII binding (in words),octopamine receptors [9],not displaced
NCCc1c[nH]cn1 [histamine],displacement of irreversible VIII binding (in words),octopamine receptors [9],not displaced
NC[C@H](O)c1ccc(O)c(O)c1 [norepinephrine],displacement of irreversible VIII binding (in words),octopamine receptors [9],not displaced
NCC(O)c1ccc(O)cc1 (centres unmarked) [octopamine],Ka (concentration necessary for half-maximal activation of cyclase activity),[8],30 µM
same,irreversible activation after preincubation with compound alone,octopamine receptors [6],failed to cause any irreversible activation
NCCc1c[nH]c2ccc(O)cc12 [serotonin],displacement of irreversible VIII binding (in words),octopamine receptors [9],not displaced
